Source: patent US20060223812A1, “Treating neurodegenerative conditions” (MAX-PLANCK-GESELLSCHAFT ZUR FORDERUNGDER WISSENSCHAFTEN, …, priority 2004, published 2006)

Key:
Aβ1-40 fibrils = target: T1, Aβ1-40 fibrils (Homo sapiens, UniProt P05067); assay: Disassembly of pre-formed Aβ fibrils (thioflavine T); format: biochemical; settings: 60 μM compound, 10 μM Aβ1-40
T1 construct: Commercial human Aβ1-40 was obtained from Calbiochem; purchased Calbiochem
Procedure: Besides the activity of the compounds towards tau fibres, their specificity is an important issue, i.e. the ability to discriminate between different types of aggregates. Therefore, an analysis of the influence of the compounds (60 μM) on amyloid fibrils made from the Aβ1-40 peptide, both in terms of inhibition of de novo filament formation and depolymerisation was performed (FIGS. 8A-B). These fibres are also abundant in Alzheimer brain and contain a core of cross-β-structure, but are located outside the cells, in contrast to the intracellular PHFs.
Commercial human Aβ1-40 was obtained from Calbiochem (Schwalbach, Germany) and stored at −20° C. The AD peptide was routinely dissolved in 100% DMSO to obtain a 2 mM stock solution, which was subsequently stored frozen at −20° C. […] For analysis 5 μl of this solution were added to 45 μl 10 mM phosphate buffer containing 6 μM thioflavine T, pH 6.0, after 30 minutes incubation at room temperature the fluorescence was measured at 504 nm emission by an excitation of 409 nm. To correlate fibril morphology with the fluorescence signal, aliquots of the Aβ1-40 solutions were simultaneously prepared for electron microscopy. […]

[1] = system: N2a cells expressing K18/ΔK280; assay: Tau aggregation in cells, sarkosyl extraction and Western blot densitometry; format: cell-based, mouse; settings: 15 μM emodin
Source text: A crucial test for the application of inhibitors is their effect in cell models of tauopathy. A neuroblastoma (N2a) cell line which allows inducible expression of the tau construct K18ΔK280 under the control of the tet-on transactivator was generated. This construct was chosen because it contains the FTDP17 mutation ΔK280 in the 4-repeat domain K18 which promotes the formation of β-structure and therefore aggregates readily, even in the absence of polyanionic inducers (von Bergen et al., 2001; {Barghorn, 2002).
The tau construct K18/ΔK280 was expressed in the mouse neuroblastoma cell line N2a in an inducible manner under the control of the reverse tetracycline-controlled transactivator (rtTA) as described elsewhere (Gossen & Bujard, 2002). […] After 3-7 days the cells were harvested and tested for tau aggregation, thioflavin S fluorescence, and viability.
The levels and solubility of the K18/ΔK280 tau protein were determined by the method of Greenberg and Davies (1990) which makes use of the insolubility of protein aggregates after treatment with sarkosyl. The supernatant and sarcosyl-insoluble pellets were analysed by Western blotting with the pan-tau antibody K9JA and analysed by densitometry. Aggregation of tau in cells was tested by the fluorescence of thioflavine S. ThS signals were scored in three independent fields containing 40 cells each. […]

PHFs from htau23 = target: T2, PHFs from htau23 (Homo sapiens, UniProt P10636); assay: Filter trapping assay, depolymerisation of PHFs; format: biochemical; settings: PVDF filter, antibody K9JA
T2 construct: made in house; host or cells: E. coli
Procedure: The effect of compounds on the depolymerisation of PHFs was analysed using a filter trapping assay. This assay monitors aggregated tau which is trapped on a membrane filter, whereas the soluble protein is washed through. Therefore the technique preferably detects larger filaments, similar to the ThS assay.
Aggregates of tau were trapped by filtration through a PVDF-membrane (pore diameter 0.45 μm, Schleicher and Schuell, Düren, Germany) adapted to 96-well dot blot apparatus. The PVDF-membrane was wetted with methanol and rinsed with PBS-buffer before incorporated into the dot blot apparatus. The samples were pipetted into 100 μl of PBS and filtered. The membrane was washed three times with PBS before taken out of the apparatus and blocked with 5% milk powder in PBS for 30 minutes in a rotational shaker at room temperature. The polyclonal antibody K9JA was used as primary antibody and incubated at a dilution of 1:20.000 at room temperature for one hour. […] After three times washing with TBS-Tween the signal was detected using the ECL system (Amersham Pharmacia) and pictures were taken with the digital gel documentation system Fuji film BAS3000 (Raytest, Straubenhardt, Germany). Quantification of the signals was performed with the AIDA-software package (Raytest, Straubenhardt, Germany).
(D) Depolymerisation of PHFs from htau23 measured by filter assay. […]

T1 sequence (P05067 672-711): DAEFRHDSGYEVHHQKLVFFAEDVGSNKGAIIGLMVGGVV
T2 sequence (P10636 1-352 isoform P10636-2): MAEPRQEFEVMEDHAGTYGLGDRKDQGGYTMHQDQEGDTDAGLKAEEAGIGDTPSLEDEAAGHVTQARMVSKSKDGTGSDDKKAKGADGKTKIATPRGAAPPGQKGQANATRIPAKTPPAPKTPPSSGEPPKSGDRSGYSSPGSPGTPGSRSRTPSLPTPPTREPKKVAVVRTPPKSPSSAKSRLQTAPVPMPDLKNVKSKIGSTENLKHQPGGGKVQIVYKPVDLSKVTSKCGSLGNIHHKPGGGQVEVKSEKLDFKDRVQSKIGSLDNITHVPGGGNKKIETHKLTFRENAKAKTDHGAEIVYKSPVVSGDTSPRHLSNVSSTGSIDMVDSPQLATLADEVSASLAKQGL

Structure (SMILES) | depolymerisation activity, Aβ fibrils (Aβ1-40 fibrils) | reduction of sarkosyl-insoluble fraction ([1]; 7 days) | sarkosyl-insoluble fraction of total cellular tau (K18/ΔK280) ([1]; 7 days induction, untreated 14%) | DC50 (PHFs from htau23)
O=C(c1ccccc1)c1ccc(O)c(O)c1O [PHF005, 1-Phenyl-1-(2,3,4-trihydroxy-phenyl)-methanone] | ~50% | – | – | –
Cc1cc(O)c2c(c1)C(=O)c1cc(O)cc(O)c1C2=O [Emodin, 1,3,8-Trihydroxy-6-methyl-anthraquinone] | – | 5 fold | 3% | ~0.5 µM
